Legend:
[1] = test system: Respiratory Syncytial Virus (RSV) long strain (ATCC#VR-26); assay: RSV Antiviral Assay (CPE reduction assay); format: cell-based; details: human respiratory syncytial virus, 120 h; HEp-2 cells infected with RSV long strain, 5 days, CCK-8 readout; bins (Table 2: less than 1 μM; Table 3: equal to or higher than 1 μM and less than 50 μM); read-out: 50% effective concentration (EC50)
Outline: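 Cytopathic-effect protection measured after 5 days at 37 °C, 5% CO2 via CCK-8 dehydrogenase readout at 450 nm (630 nm reference), EC50 regressed from mean O.D. Host HEp-2 cells received RSV long strain at 100 TCID50/well; compound 9-point ⅓ series starting 100 μM or 1 μM, 1% DMSO, duplicate wells.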

[2] = Cytotoxicity Determination; format: cell-based; details: human, HEp-2 cells, without addition of virus, CCK-8 readout, bins (Table 4: greater than 100 μM; Table 5: equal to or less than 100 μM and greater than 10 μM), read-out: 50% cytotoxicity concentration (CC50)
Outline: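 CC50 was derived from CCK-8 optical density after a 3-4 h reagent incubation. Before that, cells without virus had been treated for 5 days at 37 °C, 5% CO2 with compound at seven ½-step final concentrations from 100 μM, in duplicate wells.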

SMILES | EC50 [1] [µM] | CC50 at 5 days [2] [µM]
COc1cc(C(=O)NCC(=O)c2ccc(OC)c(-c3ccc(C)cc3)n2)ccc1OCCO [Compound 1606] | < 1 | > 100
COc1ccc(C(=O)NCC(=O)N/N=C(\C)c2csc3ccc(O)cc23)cc1OC [Compound 400-8] | 1 to 50 | 10 to 100
COc1ccc(C(=O)NC(C)CC(=O)c2ccc(OC)c(-c3csc4c(F)cccc34)n2)cc1OC (centres unmarked) [Compound 1801] | 1 to 50 | > 100
COc1ccc(C(=O)NCC(=O)N/N=C(\C)c2csc3c(Cl)cccc23)cc1OC [Compound 400-11] | 1 to 50 | 10 to 100
COc1cc(C(=O)NCC(=O)c2ccc(OC)c(-c3ccc(F)c(Cl)c3)n2)ccc1OC1COC1 [Compound 1312] | < 1 | > 100
COc1ccc(C(=O)NCC(=O)c2nc(-c3csc4c(F)cccc34)cn2CC(C)C)cc1OC [Compound 1356] | 1 to 50 | > 100
COCCOc1ccc(C(=O)NCC(=O)c2ccc(OC)c(-c3ccc(F)c(Cl)c3)n2)cc1C [Compound 1317] | 1 to 50 | > 100
CCCn1cc(-c2csc3c(F)cccc23)nc1C(=O)CNC(=O)c1ccc(OC)c(OC)c1 [Compound 1355] | 1 to 50 | 10 to 100
CCCn1nc(-c2csc3c(F)cccc23)nc1C(=O)CNC(=O)c1ccc(OC)c(OC)c1 [Compound 2203] | 1 to 50 | > 100
COc1cc(C(=O)NCC(=O)c2cc(CO)cc(-c3csc4c(F)cccc34)n2)ccc1OCCO [Compound 1255] | < 1 | 10 to 100
COc1ccc(C(=O)NCC(=O)N/N=C(/c2ccccc2)c2ccc(F)cc2)cc1OC [Compound 430] | 1 to 50 | > 100
COc1ccc(C(=O)NCC(=O)c2csc(-c3csc4c(F)cccc34)n2)cc1OC [Compound 1210] | 1 to 50 | > 100
COCc1ccc(C(=O)NCC(=O)c2ccc(OC)c(-c3ccc(F)c(Cl)c3)n2)cc1OC [Compound 1323] | < 1 | 10 to 100
COc1ccc(C(=O)NCC(=O)N/N=C2\CCCc3sccc32)cc1OC [Compound 436] | 1 to 50 | > 100
COc1ccc(C(=O)N2CCCC2C(=O)c2ccc(OC)c(-c3csc4c(F)cccc34)n2)cc1OC (centres unmarked) [Compound 1822] | 1 to 50 | 10 to 100
COc1cc(C(=O)NCC(=O)c2cc(N(C)C)cc(-c3csc4c(F)cccc34)n2)ccc1OCCO [Compound 1245] | < 1 | > 100
COc1cc(C(=O)NCC(=O)c2cc(C(C)C)cc(-c3csc4c(F)cccc34)n2)ccc1OCCO [Compound 1227] | < 1 | 10 to 100
COc1ccc(C(=O)NCC(=O)N/N=C(\C)c2c(C)sc3ccccc23)cc1OC [Compound 413] | 1 to 50 | 10 to 100
COc1cc(C(=O)NCC(=O)N(C)/N=C/c2c(F)sc3c(F)cccc23)ccc1OCCO [Compound 2304] | 1 to 50 | 10 to 100
COc1cc(C(=O)NCC(=O)c2ccc(OC)c(-c3ccc(F)c(Cl)c3)n2)ccc1OC(F)F [Compound 2646] | < 1 | 10 to 100

SMILES | EC50 [1] [µM] | CC50 at 5 days [2] [µM]
CCOc1ccc(C(=O)NCC(=O)N/N=C2\CN(CC)Cc3sc4c(F)cccc4c32)cc1OC [Compound 464] | < 1 | > 100
COc1cc(C(=O)NCC(=O)c2ccc(OC)c(-c3ccncc3)n2)ccc1OCCO [Compound 1619] | 1 to 50 | > 100
COc1ccc(C(=O)NCC(=O)c2cn(C)c(-c3csc4c(F)cccc34)n2)cc1OC [Compound 1228] | 1 to 50 | 10 to 100
COCCOc1ccc(C(=O)NCC(=O)c2ccc(OC)c(-c3ccc(F)c(Cl)c3)n2)cc1 [Compound 1311] | 1 to 50 | > 100
COc1cc(C(=O)N[C@@H](C)C(=O)c2ccc(OC)c(-c3ccc(F)c(C(F)(F)F)c3)n2)ccc1OCCO [Compound 1812] | < 1 | 10 to 100
COc1cc(C(=O)NCC(=O)c2cccc(-c3csc4c(F)cccc34)n2)ccc1OC1CC(O)C1 (centres unmarked) [Compound 1256] | < 1 | 10 to 100
CNc1ccc2scc(/C=N/NC(=O)CNC(=O)c3ccc(OC)c(OC)c3)c2c1 [Compound 400-18] | 1 to 50 | > 100
COc1ccc(C(=O)CNC(=O)c2ccc(OCCO)c(C)c2)nc1-c1ccc(F)c(Cl)c1 [Compound 1309] | < 1 | > 100
COc1ccc(C(=O)NCC(O)c2ccnc(-c3csc4c(F)cccc34)n2)cc1OC (centres unmarked) [Compound 839, N-(2-(2-(7-fluorobenzo[b]thiophen-3-yl)pyrimidin-4-yl)-2-hydroxyethyl)-3,4-dimethoxy-benzamide] | 1 to 50 | > 100
CCOc1ccc(C(=O)NCC(=O)N/N=C/c2coc3c(F)cccc23)cc1OC [Compound 400-28] | 1 to 50 | > 100
COc1ccc(C(=O)NCC(=O)N/N=C(\C)c2cc(C)sc2C)cc1OC [Compound 438] | 1 to 50 | > 100
CNCc1ccc(C(=O)NCC(=O)N/N=C(\CCOC)c2csc3c(F)cccc23)cc1OC [Compound 400-24] | 1 to 50 | > 100
COc1ccc(C(=O)NCC(=O)c2ccc(OC)c(-c3ccc(F)cc3)n2)cc1OC [Compound 1515] | < 1 | > 100
C/C(=N\NC(=O)CNC(=O)c1ccc2c(c1)OCCN2C)c1csc2ccccc12 [Compound 470] | 1 to 50 | > 100
COc1ccc(C(=O)NCC(=O)N/N=C(\CCCC(C)C)c2csc3ccccc23)cc1OC [Compound 489] | 1 to 50 | 10 to 100
CNc1ccc(C(=O)CNC(=O)c2ccc(OCCO)c(OC)c2)nc1-c1csc2c(F)cccc12 [Compound 1253] | < 1 | > 100
COc1cc(Br)c(C(=O)NCC(=O)N/N=C(\C)c2csc3ccccc23)cc1OC [Compound 479] | 1 to 50 | 10 to 100
COc1ccc(C(=O)CNC(=O)c2ccc(OCCO)cc2)nc1-c1ccc(F)c(Cl)c1 [Compound 1308] | 1 to 50 | > 100
COc1ccc(C(=O)NCC(=O)c2ccc(OC)c(-c3cc(C(=O)NC4CCCCC4)ccc3F)n2)cc1OC [Compound 1514] | 1 to 50 | > 100
COc1cc(C(=O)NCC(=O)N/N=C(\C)c2csc3ccccc23)ccc1OCC1CC1 [Compound 510] | < 1 | 10 to 100

SMILES | EC50 [1] [µM] | CC50 at 5 days [2] [µM]
COc1ccc(C(=O)NCC(=O)N(C)/N=C/c2c(C#N)sc3c(F)cccc23)cc1OCCO [Compound 2303] | 1 to 50 | > 100
CCOc1ccc(C(=O)NCC(=O)N/N=C(\C)c2csc3ccccc23)cc1N(CC)CC [Compound 505] | 1 to 50 | 10 to 100
COc1ccc(C(=O)NCC(=O)N2CCCC(c3csc4c(F)cccc34)=N2)cc1OC [Compound 3501] | < 1 | 10 to 100
CCCC/C(=N\NC(=O)CNC(=O)c1ccc(OC)c(OC)c1)c1csc2c(F)cccc12 [Compound 400-7] | < 1 | 10 to 100
COc1cc(-c2csc3c(F)cccc23)nc(C(=O)CNC(=O)c2ccc(OC)c(OC)c2)n1 [Compound 3401] | 1 to 50 | > 100
COc1cc(C(=O)NCC(=O)c2ccc(OC)c(-c3ccc(F)c(O)c3)n2)ccc1OCCO [Compound 1328] | < 1 | > 100
COc1ccc(C(=O)NCC(=O)c2ccc(OC)c(-c3ccnc(Cl)c3)n2)cc1OC [Compound 1536] | 1 to 50 | > 100
COc1cc(C(=O)NCC(=O)c2ccc(OCC3CC3)c(-c3csc4c(F)cccc34)n2)ccc1OCCO [Compound 2617] | < 1 | > 100
COc1ccc(C(=O)NCC(=O)N/N=C/c2cc3c(F)cccc3s2)cc1OC [Compound 400-2] | 1 to 50 | 10 to 100
COc1cc(C(=O)CNC(=O)c2ccc(OCCCO)c(OC)c2)nc(-c2csc3c(F)cccc23)c1 [Compound 1216] | < 1 | 10 to 100
COc1cc(C(=O)NC(C)C(=O)c2ccc(OC)c(-c3ccc(F)c(Cl)c3)n2)ccc1OCCO (centres unmarked) [Compound 1839] | < 1 | 10 to 100
COc1ccc(C(=O)NCC(=O)c2c[nH]cc(-c3csc4c(F)cccc34)c2=O)cc1OC [Compound 1337] | 1 to 50 | > 100
COc1cc(C(=O)NCC(=O)c2ccc(OC)c(-c3ccc(Cl)c(F)c3)n2)ccc1OCCO [Compound 1612] | < 1 | > 100
CCc1cc(C(=O)CNC(=O)c2ccc(OCCO)c(OC)c2)nc(-c2ccc(F)cc2)c1 [Compound 2109] | < 1 | 10 to 100
COc1cc(C(=O)NCC(=O)c2ccc(OC)c(-c3n[nH]c4ccccc34)n2)ccc1OCCO [Compound 1346] | 1 to 50 | > 100
COc1ccc(C(=O)NCC(=O)N/N=C(/c2csc3ccccc23)C2CC2)cc1OC [Compound 426] | 1 to 50 | 10 to 100
COc1ccc(C(=O)NCC(=O)N/N=C(\CCc2ccccc2)c2csc3ccccc23)cc1OC [Compound 495] | 1 to 50 | 10 to 100
COc1cc(C(=O)NCC(=O)c2ccc(OC)c(-c3ccc(F)c(CF)c3)n2)ccc1OCCO [Compound 1326] | < 1 | > 100

From US9724351B2, “Compounds for the treatment of paramoxyvirus viral infections” (priority 2012, dated 2017)
